Results taken from patent US4191738A, “Immunoassay for N-desmethyldiazepam” (Hoffmann-La Roche Inc., priority 1978, dated 1980).
“And” between values parts separate entries of the source, which are not always exact repeats. Equal entries are not always repeated.

Legend:
[1] = test system: antiserum to N-desmethyldiazepam; experiment: RIA cross-reactivity with the antiserum to N-desmethyldiazepam; assay type: binding, New Zealand white rabbit; details: for % Cross-reaction: determined at 50% inhibition of antibody-bound ^3 H-N-desmethyldiazepam; for interference (cross-reactivity in words): RIA antiserum to N-desmethyldiazepam
Description: (§1) Two New Zealand white rabbits were immunized by intradermal injection of the immunogen as an emulsion in Freund's complete adjuvant (1 mg/ml) using the protocol of Dixon et al. supra. The animals were then boosted at monthly intervals by intravenous and subcutaneous injection of 100 μg of the immunogen as a solution in isotonic saline via both routes. Serum was harvested at 10 to 14 days following each booster and stored at -20° C.
The assay was carried out in 12×75 mm glass tubes using 0.01 M Tris buffer (pH 7.5) containing 0.9% NaCl and 0.1% sodium azide. A calibration curve was generated by addition of ^3 H-N-desmethyldiazepam (15,000 cpm) in 0.5 ml of buffer to tubes containing 0.5 to 20 ng of unlabelled N-desmethyldiazepam in 50 μl of control plasma or blood followed by 0.4 ml of suitably diluted antiserum. Appropriate controls were included to determine nonspecific (i.e. absence of antiserum) and specific binding of the tracer. Following incubation at room temperature for 0.5 to 1 hr, an equal volume (1 ml) of saturated ammonium sulfate (adjusted to pH 7.5 with 5 N NaOH) was added to precipitate antibody-bound radioligand. The mixture was vortexed and after standing for 10 min at 4° C. in a refrigerated centrifuge, the tubes were centrifuged at 2500×g for 20 min. The supernate was removed by aspiration and the precipitate, containing the antibody-bound radioligand, dissolved in 0.4 ml of water. (When whole blood samples were assayed, the precipitate was washed twice with 1 ml of 50% saturated ammonium sulfate prior to its dissolution in water. This procedure removed virtually all of the heme proteins which might otherwise interfere with the subsequent liquid scintillation counting procedure.) After the addition of 3 ml of Aquasol (New England Nuclear, Boston, Mass. 02118) each tube was vortexed immediately to give a clear solution, capped with a Caplug (size 5X, Protective Closures Co., Inc., Buffalo, N.Y. 14207) and the tube counted directly as described by Dixon and Cohen, Clin. Chem, 22, 1746 (1976) in a modified liquid scintillation counter (Packard Tri-Carb, Model 3255, Packard Instrument Co., Ill. 60515). The counting efficiency for tritium under these conditions was 32%.
All samples were assayed in duplicate and the data calculated as outlined by Robard, Clin. Chem. 20, 1255 (1970) using a digital computer for iterative weighted linear regression analysis of logit B/Bo versus log dose where B and Bo are the amounts of antibody-bound radioligand in the presence and absence of unlabelled drug, respectively. Both B and Bo were corrected for nonspecific binding.
The specificity of the RIA was established by determination of the extent of cross-reactivity of a number of potential competitors with the antiserum and by comparison of the RIA method with the EC-GC procedure of de Silva et al., Anal. Chem. 48, 10 (1976).
*Determined at 50% inhibition of antibodybound ^3

[2] = test system: antibodies elicited by N-desmethyldiazepam-bovine gamma globulin conjugate; details: 3'-carboxypropyl linked conjugate, U.S. Pat. No. 4,046,636 Example 8; cited from earlier work
[3] = test system: antiserum to N-desmethyldiazepam; experiment: RIA calibration, binding of ^3 H-N-desmethyldiazepam to antiserum, sensitivity and precision; design: species or system New Zealand white rabbit
Description: as §1
The assay was carried out in 12×75 mm glass tubes using 0.01 M Tris buffer (pH 7.5) containing 0.9% NaCl and 0.1% sodium azide. […] (When whole blood samples were assayed, the precipitate was washed twice with 1 ml of 50% saturated ammonium sulfate prior to its dissolution in water. This procedure removed virtually all of the heme proteins which might otherwise interfere with the subsequent liquid scintillation counting procedure.) After the addition of 3 ml of Aquasol (New England Nuclear, Boston, Mass. 02118) each tube was vortexed immediately to give a clear solution, capped with a Caplug (size 5X, Protective Closures Co., Inc., Buffalo, N.Y. 14207) and the tube counted directly as described by Dixon and Cohen, Clin. Chem, 22, 1746 (1976) in a modified liquid scintillation counter (Packard Tri-Carb, Model 3255, Packard Instrument Co., Ill. […]

[4] = cited from earlier work

Compound: Nc1ccc2c(c1)C(c1ccccc1Cl)=NCC(=O)N2 [7-Aminoclonazepam]
- % Cross-reaction [1]: 0.07%

Compound: CN(C)CCC=C1c2ccccc2CCc2ccccc21 [Amitriptyline]
- interference (cross-reactivity in words) [1]: negligible interference
- % Cross-reaction [1]: < 0.01%
- % Cross-reaction ([1]; listed as amitriptyline): less than 1%

Compound: CNC1=Nc2ccc(Cl)cc2C(c2ccccc2)=[N+]([O-])C1 [Chlordiazepoxide]
- cross-reaction with prior-art antibodies [2]: cross-react strongly
- % Cross-reaction [1]: 0.2%
- % Cross-reaction ([1]; listed as chlordiazepoxide): less than 1%

Compound: O=C1CN=C(c2ccccc2Cl)c2cc([N+](=O)[O-])ccc2N1 [Clonazepam]
- interference (cross-reactivity in words) [1]: negligible interference
- % Cross-reaction [1]: 0.3%
- % Cross-reaction ([1]; listed as clonazepam): less than 1%

Compound: O=C(O)C1N=C(c2ccccc2)c2cc(Cl)ccc2NC1=O (stereo not shown) [Clorazepate]
- % Cross-reaction [1]: > 50%
- % Cross-reaction ([1]; listed as clorazepate): greater than 50%

Compound: O=C1C[N+]([O-])=C(c2ccccc2)c2cc(Cl)ccc2N1 [Demoxepam]
- % Cross-reaction [1]: 0.6%
- % Cross-reaction ([1]; listed as demoxepam): less than 1%

Compound: CN1C(=O)CN=C(c2ccccc2)c2cc(Cl)ccc21 [Diazepam]
- cross-reaction with prior-art antibodies [2]: cross-react strongly
- % Cross-reaction [1]: 0.6% and 0.5%
- % Cross-reaction ([1]; listed as diazepam): less than 1%

Compound: O=C1CN=C(c2ccccc2)c2cc(Cl)ccc2N1 [N-desmethyldiazepam]
- cross-reaction with prior-art antibodies [2]: cross-react strongly
- inhibition of binding of the radioligand to the antiserum ([3]; 0.5 ng standard, plasma): greater than 10%
- % Cross-reaction [1]: 100%

Compound: CNCCC=C1c2ccccc2CCc2ccccc21 [Nortriptyline]
- % Cross-reaction [1]: < 0.01%

Compound: O=C1Nc2ccc(Cl)cc2C(c2ccccc2)=NC1O (stereo not shown) [Oxazepam]
- presence in plasma as metabolite of diazepam and clorazepate [4]: negligible quantities
- cross-reaction with prior-art antibodies [2]: cross-react strongly
- % Cross-reaction [1]: 5.5%

Compound: ^3 H-N-desmethyldiazepam
- added radioligand bound by antiserum ([3]; 0.5 μl of antiserum, after second booster immunization): approximately 50%
